8 compounds from patent US10945938B2, “Lactone-containing compositions for malodor elimination” (Takasago International Corporation, priority 2014, dated 2021) can be followed below.

Experiment [1] in a line: Methyl mercaptan suppression analysis by GC-PFPD, aqueous conditions (Examples 1-4). As to conditions: for Methyl Mercaptan Suppression (%): ethanol/deionized water, about 10 ppm methyl mercaptan sodium salt, room temperature 2 hours, replicate values; for suppression of the amount of methyl mercaptan (in words): lactone alone, 100 or 200 ppm, aqueous conditions, Tables 1-4. An excerpt: (§1) Methyl mercaptan suppression analysis was used to evaluate malodor elimination effects of the compounds. Methyl mercaptan is known to be a major oral malodor material. For example, methyl mercaptan is found in the oral cavity of halitosis patients and also found in malodor producing food products (e.g., garlic). A multipurpose sampler (MPS 2, Gerstel Inc, Baltimore Md.)—Gas Chromatography (6890N, Agilent Technologies Inc, Wilmington Del.) with the Pulsed Flame Photometric Detector (PFPD, model 5380, OI Analytical, College Station, Tx) was used for the methyl mercaptan analysis. 0.5% (w/v) sodium thiomethoxide, which is a sodium salt of methyl mercaptan (purchased from Aldrich chemical company, Inc. Allentown, Pa.) in deionized water was used as the methyl mercaptan stock solution, which was freshly prepared for every test day.
200 ppm or 100 ppm lactone (36 μl of 1% (200 ppm) or 0.5% (100 ppm) (w/v) of the test malodor eliminating compounds in 200 proof ethanol), 144 μl of 200 proof ethanol, and 1620 μl of deionized water were added into a 2 ml GC vial. The prepared vial was placed on a sample tray of the multipurpose sampler-GC-PFPD. 3.6 μl of methyl mercaptan stock solution was added in the GC vial using the multipurpose sampler, and the GC vial was left to sit at room temperature for 2 hours. 0.4 μl of the test solution was injected into the GC inlet (an Agilent tapered focus liner with glass wool was installed, split mode, 10:1 split ratio) using the multipurpose sampler. The carrier gas flow rate was 1.5 ml/min (in constant flow mode) and the Agilent DB-1MS UI column (L60 m×ID 0.250 mm×thickness 0.25 μm) was used for the analysis. […] The GC oven was held at 280° C. for 5 minutes. Ethanol alone was used as a blank control. The final concentration of test malodor eliminating compounds were 200 ppm or 100 ppm, and final methyl mercaptan sodium salt concentration was about 10 ppm.
Malodor (methyl mercaptan) suppression was calculated as follows: Malodor (methyl mercaptan) Suppression (%)=(GC area of blank control sample−GC area of test sample)/GC area of blank control sample×100.

A short description of experiment [2]: Methyl mercaptan suppression analysis by GC-PFPD, non-aqueous (ethanol) conditions (Examples 5-9). As to conditions: for Methyl Mercaptan Suppression (%): 200 proof ethanol, 10 ppm methyl mercaptan sodium salt, room temperature 2 hours.
From the text: as §1
For the screening test, 100 ppm lactone (20 μl of 0.5% of lactone in 200 proof ethanol (w/v)), 300 ppm lactone (30 μl of 1% of lactone in 200 proof ethanol (w/v)), 200 ppm phenolic compound (20 μl of 1% of phenolic compound in 200 proof ethanol (w/v)) and 300 ppm phenolic compound (30 μl of 1% of phenolic compound in 200 proof ethanol (w/v)) were tested. In addition, various combinations of a lactone and a phenolic compound were tested. The lactones and phenolic compounds were pipetted into 2 ml GC vials, and 200 proof ethanol was added up to 1000 μl. The prepared vial was placed on a sample tray of the multipurpose sampler-GC-PFPD. 2 μl methyl mercaptan stock solution was added in the GC vial utilizing the multipurpose sampler, and the vial was left to sit at room temperature for 2 hours. 0.4 μl of the test solution was injected into the GC inlet (an Agilent tapered focus liner with glass wool was installed, split mode, 10:1 split ratio) using the multipurpose sampler. The carrier gas flow rate was 1.5 ml/min (in constant flow mode) and the Agilent DB-1 MS UI column (L60 m×ID 0.250 mm×thickness 0.25 μm) was used for the analysis. The temperature of the GC oven started at 40° C. and after 5 minutes, the temperature was increased to 180° C. at a speed of 20° C./min, and subsequently to 280° C. at a speed of 40° C./min, which was held for 5 minutes.
200 proof ethanol alone was used as a blank control. The final concentration of the methyl mercaptan sodium salt was 10 ppm.
Malodor (methyl mercaptan) suppression was calculated as follows: Malodor (methyl mercaptan) Suppression (%)=(GC area of blank control sample−GC area of test sample)/GC area of blank control sample×100.

[3] abbreviates: 200 ppm test compound alone, values of several testing sets.
The mark [4] stands for this setting: 300 ppm test compound alone, replicate values.

“And” between values parts separate entries of the source, which are not always exact repeats. Identical values can stand only once.

For the compound `O=C1C=CCO1` [2(5H) furanone], in experiment [1] (100 ppm test compound alone), the “Methyl Mercaptan Suppression (%)” value is 97% and 95% and 100%. The “suppression of the amount of methyl mercaptan (in words)” value (from here on “suppression of the amount … (in words)”) in experiment [1] was “suppressed the amount of methyl mercaptan”.
As for `CCCCOCc1ccc(O)c(OC)c1` [Hotact ®VBE, vanillyl butyl ether], the “Methyl Mercaptan Suppression (%)” value was 13% and 7% and 8% and 10% and 12% and 17% in experiment [2] (setting [3]); 13% (2×) and 10% in experiment [2] (setting [4]).
With `CC1=CCC(=O)O1` [angelica lactone alpha], the “Methyl Mercaptan Suppression (%)” value was 47% and 31% and 69% in experiment [1] (100 ppm test compound alone); 94% and 93% and 86% in experiment [1] (200 ppm test compound alone); 32% and 22% and 30% in experiment [2] (setting [4]). The “suppression of the amount … (in words)” value in experiment [1] is reported as “suppressed the amount of methyl mercaptan”.
Regarding `CC1C=CC(=O)O1` (stereo not drawn) [angelica lactone beta], the “Methyl Mercaptan Suppression (%)” value in experiment [1] (100 ppm test compound alone) is 10% and 26% and 41%. In experiment [1], the “suppression of the amount … (in words)” value was “suppressed the amount of methyl mercaptan”.
As to `O=C1O[C@H]([C@@H](O)CO)C(O)=C1O` [ascorbic acid, reference compound], in experiment [2] (setting [3]), the “Methyl Mercaptan Suppression (%)” value is on record as 11%. Besides, the “synergistic malodor suppression or elimination effect of the combination with a phenolic compound (in words)” value in experiment [2] (ethanol conditions, combination compared with additive effect of single components) is “do not exhibit a synergistic malodor elimination effect when combined with phenolic compounds”.
Take `C=CCc1ccc(O)c(OC)c1` [eugenol]: in experiment [2] (setting [4]), the “Methyl Mercaptan Suppression (%)” value is 8% and 14% and 11%.
Same read-out and setting: with `COC(=O)c1ccccc1O` [methyl salicylate] the figure was 9% and 10% and 8%.
Turning to `CC1=C2CCC(C)CC2OC1=O` (stereo not shown) [mint lactone], the “Methyl Mercaptan Suppression (%)” value in experiment [1] (200 ppm test compound alone) was 87% and 100% (2×). Besides, in experiment [1], the “suppression of the amount … (in words)” value is recorded as “suppressed the amount of methyl mercaptan”.
